One assay relates to epidermal ODC protein. The assay is described as follows: TPA-induced epidermal ODC protein expression (western blot). The format is in vivo, mouse. The method, then: FIG. 4. Inhibitory effect of Lupeol on TPA-induced epidermal ODC, iNOS and COX-2 protein expression in CD-1 mice: At different times after treatment, the animals were sacrificed, epidermal protein lysate was prepared, and ODC and COX-2 protein expression were determined. Equal loading of protein was confirmed by stripping the immunoblot and reprobing it for β-actin. The immunoblots shown here are representative of three independent experiments with similar results. The values above each lane indicate relative density of the band normalized to β-actin.
(§1) The animals were shaved on the dorsal side of the skin, divided into four groups and treated topically on the shaved area with either 0.4 ml vehicle (acetone), or TPA (3.2 nmol/0.4 ml acetone/animal, v/v), or Lupeol (1 or 2 mg/0.2 ml acetone/animal, w/v) followed 30 min later with TPA (3.2 nmol/0.2 ml acetone/animal). Animals were sacrificed at different times point i.e. 6, 12, 24 and 48 h post TPA treatment. […]
(§2) Epidermis from the whole skin was separated as described earlier (Katiyar et al., 1999) and was homogenized in ice-cold lysis buffer [50 mM Tris-HCl, 150 mM NaCl, 1 mM EGTA, 1 mM EDTA, 20 mM NaF, 100 mM Na3VO4, 0.5% NP-40, 1% Triton X-100, 1 mM PMSF (pH 7.4)] with freshly added protease inhibitor cocktail, Protease Inhibitor Cocktail Set III (Calbiochem, La Jolla, Calif., USA). […] The protein content in the lysates was measured by DC BioRad assay (BioRad Laboratories, Hercules, Calif.) as per the manufacturer's protocol.
(§3) For western blot analysis, 40 μg of the protein was resolved over 8-12% polyacrylamide gels and transferred to a nitrocellulose membrane. […] This was followed by incubation with anti-mouse or anti-rabbit secondary antibody horse-radish peroxidase (Amersham Life Sciences, Inc., USA) for 1 h and then washed several times and detected by chemiluminescence ECL kit, (Amersham Life Sciences, Inc., USA) and autoradiography using XAR-5 film obtained from Eastman Kodak Co. (Rochester, N.Y., USA). […]

The test system of another assay is human PSA. The assay is described as follows: Serum PSA in athymic nude mice implanted with CWR22Rv1 cells. The format is in vivo, mouse. The note with it: Lupeol 1 mg/animal i.p. three times a week, vs control mice. The source says:
FIG. 19 depicts effect of Lupeol on human PSA levels in serum of athymic nude mice implanted with CWR22Rv1 cells. Data is represented as mean±SD. * indicates p<0.05.
CW22Rv1 cells once implanted in a xenograft mouse model releases Prostate specific antigen (PSA) in host system and grows rapidly than LNCaP cells. PSA is a well known diagnostic biomarker of prostate cancer.

Another assay has as its system LNCaP cells. As to the kind of experiment: LNCaP viability with anti-Fas mAb alone or combined with Lupeol, MTT assay. The class given is cell-based, human. The method, then: FIG. 15 depicts effect of Lupeol treatment in combination with anti-Fas mAb on the growth of LNCaP cells and on the expression of Fas receptor in LNCaP and PrEC cells: (a) Cells were treated with specified concentrations anti-Fas mAb for 48 h and cell viability was determined by MTT assay. The values are represented as the percent viable cells where vehicle-treated cells were regarded as 100% viable. Data represents mean value of percent viable cells±S.E of three independent experiments. V represents control and vehicle (DMSO) treated cells respectively. (b). Cells were treated with specified concentrations of Lupeol alone, anti-Fas mAb or with combination (Lupeol+anti-Fas mAb) for 48 h and cell viability was determined by MTT assay. “a” and “b” represent pre-treatment and co-treatment of cells with anti-Fas mAb respectively. The values are represented as the percent viable cells where vehicle-treated cells were regarded as 100% viable. Data represents mean value of percent viable cells±S.E of three independent experiments.

The test system of a further assay is Akt. As to the kind of experiment: TPA-induced phosphorylation of Akt at Thr308 (western blot). The class given is in vivo, mouse. How it is done: FIG. 5. Inhibitory effect of Lupeol on TPA-induced activation of PI3K and phosphorylation of Akt in CD-1 mice: At different times after treatment, the animals were sacrificed, epidermal protein lysate was prepared, and PI3K and phosphorylated (Thr^308) Akt and total Akt protein expression were determined. The immunoblots shown here are representative of three independent experiments with similar results. The values above each lane indicate relative density of the band normalized to β-actin.
as §1, §2, §3
In general terms: Immunoblotting shows a protein as a band on a membrane.

Each structure is given as a SMILES string. “Also recorded” adds a separate entry of the source.

As for `C=C(C)[C@@H]1CC[C@]2(C)CC[C@]3(C)[C@H](CC[C@@H]4[C@@]5(C)CC[C@H](O)C(C)(C)[C@@H]5CC[C@]43C)[C@@H]12` [Lupeol, Lup-20(29)-en-3β-ol], in the assay with epidermal ODC protein (Lupeol alone up to 2 mg/animal), the “epidermal ODC protein expression after Lupeol alone” value was “without any effect on enzyme level”. The “inhibition of TPA-caused induction of epidermal ODC protein expression (densitometry)” value with epidermal ODC protein (Lupeol-pretreated animals, 1 or 2 mg, all time points) is reported as 50-70%. Moreover, the “serum PSA levels” value in the assay on human PSA is reported as “lower serum PSA levels”. The “combination effect of Lupeol with Fas-agonist (anti-Fas mAb) on cell death” value with LNCaP cells (LNCaP cells, vs additive effect of the two alone) is reported as “synergistic effect; also recorded: significant synergistic manner”. Also, the “cell death of LNCaP cells” value in the assay on LNCaP cells (anti-Fas mAb pretreated LNCaP cells treated with Lupeol (30 μg)) is given as 95-98%. In addition, the “TPA-induced phosphorylation of Akt at Thr308” value in the assay on Akt (pre-application of Lupeol prior to TPA) is “dose dependent inhibition”. For the same molecule, in the assay on Akt (vs vehicle treated control), the “total epidermal Akt content” value was “no change was observed”.

The values above are taken from patent US8618082B2, “Lupeol anti-tumor agent and uses thereof” (Wisconsin Alumni Research Foundation, priority 2004, dated 2013).
